One may read the IC50 as the point on the concentration scale where inhibition reaches its midpoint. Lower therefore signals inhibition by little substance.

This passage reports IC50 and remaining activity results from patent publication US8703961B2, “Thiazole derivatives for the treatment of diseases such as cancer” (Merck Patent GmbH, priority 2009, dated 2014).

What all share (experiment): filter binding kinase assay
What all share (assay type): biochemical

One assay deals with T1, CSK (Homo sapiens, UniProt P41240).
T1 construct: purchased
T1 sequence (P41240 whole entry, species assumed): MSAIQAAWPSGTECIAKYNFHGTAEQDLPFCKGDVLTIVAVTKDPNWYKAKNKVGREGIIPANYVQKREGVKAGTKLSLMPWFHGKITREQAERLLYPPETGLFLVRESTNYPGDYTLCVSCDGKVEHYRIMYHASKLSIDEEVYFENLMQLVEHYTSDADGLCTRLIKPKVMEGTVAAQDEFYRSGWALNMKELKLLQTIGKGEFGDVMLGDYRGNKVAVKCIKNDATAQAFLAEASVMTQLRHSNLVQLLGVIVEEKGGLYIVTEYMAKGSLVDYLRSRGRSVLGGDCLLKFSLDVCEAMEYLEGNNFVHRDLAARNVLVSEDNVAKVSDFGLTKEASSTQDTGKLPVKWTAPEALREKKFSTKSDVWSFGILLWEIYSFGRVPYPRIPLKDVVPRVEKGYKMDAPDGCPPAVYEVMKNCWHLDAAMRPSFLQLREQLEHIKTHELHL
Particulars: derived from % inhibition at 1 μM. Here is the method:
(§1) All kinase assays were carried out using the Multidrop 384 from Thermo-Fisher at room temperature in a total assay volume of 25.5 μl. 15 μl of an enzyme mix comprising enzyme and substrate in buffer are added to the test batch comprising either 0.5 μl of test substance, DMSO control or empty container. Test substances are pre-incubated in the presence of the enzyme and substrate for 5 minutes before the reaction is initiated by addition of 10 μl of ATP (concentration kinase-dependent of […]). The reaction is terminated by addition of 5 μl of orthophosphoric acid (50 mM). The test containers are then transferred onto P81 Unifilter plates by means of a “Packard Harvester” and dried in air. The dry Unifilter plates are sealed after the addition of MicroScint O, and the radioactivity is determined in a Packard Topcount NXT.

In the next assay the target is T2, PKN2 (PRK2) (Homo sapiens, UniProt Q16513).
T2 construct: purchased
T2 sequence (Q16513 whole entry, species assumed): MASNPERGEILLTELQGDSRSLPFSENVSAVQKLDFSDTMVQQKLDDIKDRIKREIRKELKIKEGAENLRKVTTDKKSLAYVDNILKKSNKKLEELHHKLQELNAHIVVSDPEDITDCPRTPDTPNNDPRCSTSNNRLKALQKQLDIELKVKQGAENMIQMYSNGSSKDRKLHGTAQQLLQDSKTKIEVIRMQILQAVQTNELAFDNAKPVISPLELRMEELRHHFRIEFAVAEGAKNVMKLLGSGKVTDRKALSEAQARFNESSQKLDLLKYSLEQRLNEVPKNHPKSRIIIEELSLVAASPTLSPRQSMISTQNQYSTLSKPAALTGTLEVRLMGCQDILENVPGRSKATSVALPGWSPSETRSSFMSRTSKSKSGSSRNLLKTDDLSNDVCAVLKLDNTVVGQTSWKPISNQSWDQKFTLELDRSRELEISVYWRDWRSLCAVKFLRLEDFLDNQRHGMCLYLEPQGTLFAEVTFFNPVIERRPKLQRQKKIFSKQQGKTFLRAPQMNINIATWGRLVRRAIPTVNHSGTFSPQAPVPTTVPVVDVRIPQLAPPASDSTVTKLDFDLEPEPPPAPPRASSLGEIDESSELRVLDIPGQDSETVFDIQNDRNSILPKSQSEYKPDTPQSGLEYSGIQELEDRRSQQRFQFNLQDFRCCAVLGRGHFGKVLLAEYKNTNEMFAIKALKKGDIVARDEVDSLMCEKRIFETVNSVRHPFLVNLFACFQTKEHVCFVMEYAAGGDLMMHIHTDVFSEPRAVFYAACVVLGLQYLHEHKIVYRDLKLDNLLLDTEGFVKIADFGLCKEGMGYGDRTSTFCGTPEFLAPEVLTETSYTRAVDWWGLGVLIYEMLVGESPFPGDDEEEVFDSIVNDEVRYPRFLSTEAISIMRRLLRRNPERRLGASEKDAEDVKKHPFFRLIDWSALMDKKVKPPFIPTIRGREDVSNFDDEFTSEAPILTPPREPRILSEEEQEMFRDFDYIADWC
Particulars: for IC50: derived from % inhibition at 1 μM. Here is the method: as §1

The target in the next assay is T3, PIM2 (Homo sapiens, UniProt Q9P1W9).
T3 construct: purchased
T3 sequence (Q9P1W9 whole entry, species assumed): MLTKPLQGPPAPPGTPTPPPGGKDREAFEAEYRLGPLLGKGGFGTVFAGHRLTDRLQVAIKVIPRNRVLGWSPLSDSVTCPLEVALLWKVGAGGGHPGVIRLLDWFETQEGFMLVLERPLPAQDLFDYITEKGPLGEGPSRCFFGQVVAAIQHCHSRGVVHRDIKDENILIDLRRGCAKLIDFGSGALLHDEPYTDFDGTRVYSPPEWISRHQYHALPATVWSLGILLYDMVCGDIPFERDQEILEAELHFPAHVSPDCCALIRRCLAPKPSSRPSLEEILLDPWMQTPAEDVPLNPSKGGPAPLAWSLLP
The settings on record: derived from % inhibition at 1 μM. Here is the method:
as §1

The target of a further assay is T4, INSR (Homo sapiens, UniProt P06213).
T4 construct: purchased
Particulars: derived from % inhibition at 1 μM. Here is the method:
as §1

Another assay addresses T5, DYRK2 (Homo sapiens, UniProt Q92630).
T5 construct: purchased
T5 sequence (Q92630 1-601): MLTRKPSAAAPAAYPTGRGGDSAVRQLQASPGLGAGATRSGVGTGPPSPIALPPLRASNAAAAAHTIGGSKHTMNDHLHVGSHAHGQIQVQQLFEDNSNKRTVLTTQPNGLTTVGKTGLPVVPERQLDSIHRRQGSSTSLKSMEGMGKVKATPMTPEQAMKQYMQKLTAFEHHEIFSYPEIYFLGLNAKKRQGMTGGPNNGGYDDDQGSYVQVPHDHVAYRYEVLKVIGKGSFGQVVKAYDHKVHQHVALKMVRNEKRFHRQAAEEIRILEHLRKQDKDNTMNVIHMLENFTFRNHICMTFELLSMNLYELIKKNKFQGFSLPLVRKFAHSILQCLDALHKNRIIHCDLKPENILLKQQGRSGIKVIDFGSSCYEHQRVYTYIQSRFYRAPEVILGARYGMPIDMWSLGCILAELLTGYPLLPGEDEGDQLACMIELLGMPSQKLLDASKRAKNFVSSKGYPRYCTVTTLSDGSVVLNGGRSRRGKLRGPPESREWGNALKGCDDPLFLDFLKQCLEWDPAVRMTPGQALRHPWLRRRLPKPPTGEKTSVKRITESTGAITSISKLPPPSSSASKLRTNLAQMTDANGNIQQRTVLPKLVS
The settings on record: derived from % inhibition at 1 μM. The procedure: as §1

The target in a further assay is T6, MAPK12 (Homo sapiens, UniProt P53778).
T6 construct: purchased
T6 sequence (P53778 1-367): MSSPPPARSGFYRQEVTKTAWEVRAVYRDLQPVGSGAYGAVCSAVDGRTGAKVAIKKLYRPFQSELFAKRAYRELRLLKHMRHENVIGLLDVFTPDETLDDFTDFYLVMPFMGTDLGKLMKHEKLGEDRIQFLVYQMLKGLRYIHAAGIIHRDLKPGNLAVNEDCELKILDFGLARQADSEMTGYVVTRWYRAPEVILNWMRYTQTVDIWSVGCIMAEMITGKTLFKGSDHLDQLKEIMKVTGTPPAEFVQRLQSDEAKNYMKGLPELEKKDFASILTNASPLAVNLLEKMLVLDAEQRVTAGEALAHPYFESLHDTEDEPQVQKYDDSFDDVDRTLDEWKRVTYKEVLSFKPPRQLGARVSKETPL
The settings on record: derived from % inhibition at 1 μM. The procedure:
as §1

The target of a further assay is T7, LCK (Homo sapiens, UniProt P06239).
T7 construct: purchased
T7 sequence (P06239 whole entry, species assumed): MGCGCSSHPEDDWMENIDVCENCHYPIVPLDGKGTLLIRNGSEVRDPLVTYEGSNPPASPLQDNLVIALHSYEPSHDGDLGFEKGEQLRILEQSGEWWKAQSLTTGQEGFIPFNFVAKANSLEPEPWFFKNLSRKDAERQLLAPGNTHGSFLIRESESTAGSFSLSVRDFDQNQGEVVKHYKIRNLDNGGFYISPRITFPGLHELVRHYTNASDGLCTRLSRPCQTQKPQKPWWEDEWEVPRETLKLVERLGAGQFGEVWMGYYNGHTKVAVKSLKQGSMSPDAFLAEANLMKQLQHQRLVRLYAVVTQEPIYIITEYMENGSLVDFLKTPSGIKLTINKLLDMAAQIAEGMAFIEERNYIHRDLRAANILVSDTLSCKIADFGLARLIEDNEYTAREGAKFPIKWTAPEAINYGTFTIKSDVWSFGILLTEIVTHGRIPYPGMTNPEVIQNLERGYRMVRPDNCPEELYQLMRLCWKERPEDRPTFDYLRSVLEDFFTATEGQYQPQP
Particulars: derived from % inhibition at 1 μM. The procedure: as §1

The target in the next assay is T8, CAMK1 (Homo sapiens, UniProt Q14012).
T8 construct: purchased
The settings on record: derived from % inhibition at 1 μM. The procedure: as §1

The next assay has as its target T9, MKNK1 (Homo sapiens, UniProt Q9BUB5).
T9 construct: purchased
Particulars: derived from % inhibition at 1 μM. Here is the method:
as §1

Another assay deals with T10, RPS6KA1 (Homo sapiens, UniProt Q15418).
T10 construct: purchased
T10 sequence (Q15418 whole entry, species assumed): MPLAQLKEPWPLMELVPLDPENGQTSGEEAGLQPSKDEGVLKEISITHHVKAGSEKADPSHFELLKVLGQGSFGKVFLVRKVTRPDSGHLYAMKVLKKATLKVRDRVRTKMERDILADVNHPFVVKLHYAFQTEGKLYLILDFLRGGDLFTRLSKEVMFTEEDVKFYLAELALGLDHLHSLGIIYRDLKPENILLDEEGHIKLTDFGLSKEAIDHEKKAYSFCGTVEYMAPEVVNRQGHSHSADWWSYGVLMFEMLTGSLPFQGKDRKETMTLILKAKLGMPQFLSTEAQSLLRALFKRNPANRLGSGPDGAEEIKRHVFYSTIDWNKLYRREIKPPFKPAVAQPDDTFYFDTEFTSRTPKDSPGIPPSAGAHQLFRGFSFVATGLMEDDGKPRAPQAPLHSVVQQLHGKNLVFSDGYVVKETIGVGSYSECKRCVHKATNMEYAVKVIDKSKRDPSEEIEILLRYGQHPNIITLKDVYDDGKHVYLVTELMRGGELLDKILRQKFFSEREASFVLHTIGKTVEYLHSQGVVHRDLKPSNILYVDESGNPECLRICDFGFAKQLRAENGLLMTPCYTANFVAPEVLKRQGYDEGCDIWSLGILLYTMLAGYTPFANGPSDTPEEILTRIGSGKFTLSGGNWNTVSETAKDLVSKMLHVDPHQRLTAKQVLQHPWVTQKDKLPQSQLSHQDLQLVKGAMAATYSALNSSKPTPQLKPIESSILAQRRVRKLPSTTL
The settings on record: derived from % inhibition at 1 μM. The procedure: as §1

The target in another assay is T11, AKT1 (Homo sapiens, UniProt P31749).
T11 construct: purchased
The settings on record: derived from % inhibition at 1 μM. Here is the method: as §1

A further assay addresses T12, AURKB (Homo sapiens, UniProt Q96GD4).
T12 construct: purchased
The settings on record: derived from % inhibition at 1 μM. Here is the method: as §1

The next assay addresses T13, PRKCZ (Homo sapiens, UniProt Q05513).
T13 construct: purchased
T13 sequence (Q05513 1-592): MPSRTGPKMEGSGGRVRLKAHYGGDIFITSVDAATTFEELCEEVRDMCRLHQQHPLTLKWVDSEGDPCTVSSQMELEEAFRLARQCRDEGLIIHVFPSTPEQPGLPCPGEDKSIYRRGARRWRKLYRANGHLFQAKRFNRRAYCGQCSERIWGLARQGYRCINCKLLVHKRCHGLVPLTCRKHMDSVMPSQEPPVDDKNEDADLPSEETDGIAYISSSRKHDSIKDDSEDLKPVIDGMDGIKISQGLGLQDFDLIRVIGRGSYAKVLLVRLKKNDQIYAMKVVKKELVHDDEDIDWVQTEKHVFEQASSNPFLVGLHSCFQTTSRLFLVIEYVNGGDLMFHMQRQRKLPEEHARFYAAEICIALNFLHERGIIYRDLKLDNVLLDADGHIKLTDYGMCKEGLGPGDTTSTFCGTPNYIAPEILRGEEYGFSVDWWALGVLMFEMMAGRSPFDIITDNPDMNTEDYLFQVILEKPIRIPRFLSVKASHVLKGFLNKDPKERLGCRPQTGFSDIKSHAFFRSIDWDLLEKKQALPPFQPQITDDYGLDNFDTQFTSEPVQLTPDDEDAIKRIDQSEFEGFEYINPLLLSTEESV
Particulars: derived from % inhibition at 1 μM. Here is the method:
as §1

For the next assay, the target named is T14, ROCK2 (Rock II) (Homo sapiens, UniProt O75116).
T14 construct: purchased
T14 sequence (O75116 whole entry, species assumed): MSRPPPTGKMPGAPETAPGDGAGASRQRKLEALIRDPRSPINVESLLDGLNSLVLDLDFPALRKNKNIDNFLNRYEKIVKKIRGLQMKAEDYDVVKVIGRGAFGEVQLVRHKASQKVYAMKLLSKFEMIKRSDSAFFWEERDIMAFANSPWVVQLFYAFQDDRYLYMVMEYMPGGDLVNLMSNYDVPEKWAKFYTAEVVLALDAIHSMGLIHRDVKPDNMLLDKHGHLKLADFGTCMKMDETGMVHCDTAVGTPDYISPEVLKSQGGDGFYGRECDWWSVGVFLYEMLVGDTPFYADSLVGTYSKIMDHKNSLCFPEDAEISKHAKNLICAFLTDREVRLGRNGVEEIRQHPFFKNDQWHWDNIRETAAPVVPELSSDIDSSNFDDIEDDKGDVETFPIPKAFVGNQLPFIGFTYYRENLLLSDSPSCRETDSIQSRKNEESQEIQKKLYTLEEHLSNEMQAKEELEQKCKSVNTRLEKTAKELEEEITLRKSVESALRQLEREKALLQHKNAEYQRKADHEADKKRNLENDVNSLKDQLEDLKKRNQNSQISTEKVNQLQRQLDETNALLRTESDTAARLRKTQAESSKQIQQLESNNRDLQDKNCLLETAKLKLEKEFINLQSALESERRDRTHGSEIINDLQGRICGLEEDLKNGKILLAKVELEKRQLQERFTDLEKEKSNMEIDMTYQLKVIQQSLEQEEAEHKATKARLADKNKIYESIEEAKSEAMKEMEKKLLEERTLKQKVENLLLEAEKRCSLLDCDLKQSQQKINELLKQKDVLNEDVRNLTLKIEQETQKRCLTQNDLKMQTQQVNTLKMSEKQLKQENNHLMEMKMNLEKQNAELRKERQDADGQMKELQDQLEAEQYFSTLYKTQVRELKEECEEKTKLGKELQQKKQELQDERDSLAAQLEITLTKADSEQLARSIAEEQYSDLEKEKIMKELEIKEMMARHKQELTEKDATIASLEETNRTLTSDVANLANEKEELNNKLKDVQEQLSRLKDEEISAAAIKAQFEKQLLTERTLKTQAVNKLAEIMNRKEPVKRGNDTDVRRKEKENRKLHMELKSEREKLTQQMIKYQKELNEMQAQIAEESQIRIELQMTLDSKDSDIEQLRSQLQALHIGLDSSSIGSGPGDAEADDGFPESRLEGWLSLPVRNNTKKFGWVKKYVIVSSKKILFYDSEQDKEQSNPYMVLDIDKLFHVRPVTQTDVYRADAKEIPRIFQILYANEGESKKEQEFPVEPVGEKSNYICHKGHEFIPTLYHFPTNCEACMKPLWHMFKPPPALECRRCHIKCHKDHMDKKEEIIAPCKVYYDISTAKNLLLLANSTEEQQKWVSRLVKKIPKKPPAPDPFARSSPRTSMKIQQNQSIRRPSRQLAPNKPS
The settings on record: for IC50: derived from % inhibition at 1 μM. The procedure: as §1

T12 sequence (Q96GD4 whole entry, species assumed): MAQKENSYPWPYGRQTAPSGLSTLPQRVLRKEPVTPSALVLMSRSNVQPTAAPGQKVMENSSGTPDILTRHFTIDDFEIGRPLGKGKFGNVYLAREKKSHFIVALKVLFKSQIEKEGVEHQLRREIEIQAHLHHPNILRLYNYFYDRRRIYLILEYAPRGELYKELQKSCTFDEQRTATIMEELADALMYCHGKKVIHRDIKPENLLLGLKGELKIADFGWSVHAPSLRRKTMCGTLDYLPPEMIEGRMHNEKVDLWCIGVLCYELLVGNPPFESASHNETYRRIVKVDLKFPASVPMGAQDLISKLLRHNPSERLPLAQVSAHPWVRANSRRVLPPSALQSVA

On to `Nc1ncsc1C#Cc1cccc(O)c1` [Compound A27, 3-(4-aminothiazol-5-ylethynyl)phenol], for which the half-maximal inhibitory concentration (IC50) on CSK was 10 to 100 µM; on PKN2 (PRK2) it was 10 to 100 µM; at PIM2, 1 to 10 µM; at INSR, 10 to 100 µM; at DYRK2 it was 1 to 10 µM; on MAPK12, 1 to 10 µM. Further, the IC50 is 1 to 10 µM at LCK; 1 to 10 µM on CAMK1; 10 to 100 µM at MKNK1; greater than 1 µM at RPS6KA1; greater than 1 µM on AKT1; 10 to 100 µM at AURKB. Besides, the IC50 at PRKCZ is greater than 1 µM; at ROCK2 (Rock II), 10 to 100 µM.
For the compound `CC(C)(C)OC(=O)Nc1ncsc1C#CCN1C(=O)c2ccccc2C1=O` [Compound A26, tert-butyl{5-[3-(1,3-dioxo-1,3-dihydroisoindol-2-yl)prop-1-ynyl]-thiazol-4-yl}carbamate], the IC50 on CSK was 10 to 100 µM; at PKN2 (PRK2), 1 to 10 µM; at PIM2 it was greater than 1 µM; on INSR it was 1 to 10 µM; at DYRK2 it was greater than 1 µM; at MAPK12, 10 to 100 µM. In addition, the IC50 on LCK, at CAMK1, at MKNK1, on RPS6KA1, on AKT1 and on AURKB was greater than 1 µM each time. Further, the IC50 is 10 to 100 µM on PRKCZ and greater than 1 µM at ROCK2 (Rock II).
For the compound `CC(C)(C)OC(=O)Nc1nc(-c2ccncc2)sc1C#CCN1CCOCC1` [Compound A25, tert-butyl[5-(3-morpholin-4-ylprop-1-ynyl)-2-pyridin-4-ylthiazol-4-yl]-carbamate], the IC50 was greater than 1 µM at CSK; greater than 1 µM at PKN2 (PRK2); 1 to 10 µM at PIM2; greater than 1 µM at INSR; greater than 1 µM at DYRK2; 10 to 100 µM at MAPK12. Also, the IC50 on LCK is greater than 1 µM; on CAMK1, 1 to 10 µM; on MKNK1 it was greater than 1 µM; on RPS6KA1 it was 10 to 100 µM; at AKT1, greater than 1 µM; on AURKB, greater than 1 µM. In addition, the IC50 at PRKCZ and at ROCK2 (Rock II) was 10 to 100 µM each time.
Turning to `c1ccc(Cc2c[nH]c3ncsc23)cc1` [Compound A7, 6-benzyl-4H-pyrrolo[2,3-d]thiazole], the IC50 at CSK was 1 to 10 µM; at PKN2 (PRK2), 1 to 10 µM; at PIM2, greater than 1 µM; at INSR, greater than 1 µM; on DYRK2, greater than 1 µM; on MAPK12, greater than 1 µM. Further, the IC50 was 10 to 100 µM at LCK; 1 to 10 µM at CAMK1; greater than 1 µM at MKNK1; 10 to 100 µM at RPS6KA1; greater than 1 µM at AKT1; 1 to 10 µM at AURKB. Besides, the IC50 is greater than 1 µM on PRKCZ and 0.01 to 1 µM on ROCK2 (Rock II). Also, the remaining activity at 1 µM at ROCK2 (Rock II) (read-out: residual kinase activity Rock II) turned out to be 36%.
As to `Nc1ncsc1C#Cc1cnc2[nH]ccc2c1` [Compound A22, 5-(1H-pyrrolo[2,3-b]pyridin-5-ylethynyl)thiazol-4-ylamine], the IC50 on CSK is 10 to 100 µM; on PKN2 (PRK2), 0.01 to 1 µM; on PIM2 it was 10 to 100 µM; at INSR, 10 to 100 µM; on DYRK2 it was greater than 1 µM; on MAPK12, 1 to 10 µM. Also, the IC50 was greater than 1 µM at LCK; 10 to 100 µM at CAMK1; 10 to 100 µM at MKNK1; greater than 1 µM on RPS6KA1; 10 to 100 µM on AKT1; 10 to 100 µM at AURKB. Moreover, the IC50 on PRKCZ and at ROCK2 (Rock II) was greater than 1 µM in each case. Moreover, the remaining activity at 1 µM at PKN2 (PRK2) (read-out: residual kinase activity PRK2) came out at 38%.
